Biological target: hPDE4B (Homo sapiens, UniProt Q07343)
Test: Enzymatic inhibition of PDE4B long isoform in vitro
Type: biochemical
Settings: for PDE4B-subtype selectivity: enzymatic assays using PDE4B1 and PDE4D7

Sequence of hPDE4B (Q07343 whole entry, canonical isoform): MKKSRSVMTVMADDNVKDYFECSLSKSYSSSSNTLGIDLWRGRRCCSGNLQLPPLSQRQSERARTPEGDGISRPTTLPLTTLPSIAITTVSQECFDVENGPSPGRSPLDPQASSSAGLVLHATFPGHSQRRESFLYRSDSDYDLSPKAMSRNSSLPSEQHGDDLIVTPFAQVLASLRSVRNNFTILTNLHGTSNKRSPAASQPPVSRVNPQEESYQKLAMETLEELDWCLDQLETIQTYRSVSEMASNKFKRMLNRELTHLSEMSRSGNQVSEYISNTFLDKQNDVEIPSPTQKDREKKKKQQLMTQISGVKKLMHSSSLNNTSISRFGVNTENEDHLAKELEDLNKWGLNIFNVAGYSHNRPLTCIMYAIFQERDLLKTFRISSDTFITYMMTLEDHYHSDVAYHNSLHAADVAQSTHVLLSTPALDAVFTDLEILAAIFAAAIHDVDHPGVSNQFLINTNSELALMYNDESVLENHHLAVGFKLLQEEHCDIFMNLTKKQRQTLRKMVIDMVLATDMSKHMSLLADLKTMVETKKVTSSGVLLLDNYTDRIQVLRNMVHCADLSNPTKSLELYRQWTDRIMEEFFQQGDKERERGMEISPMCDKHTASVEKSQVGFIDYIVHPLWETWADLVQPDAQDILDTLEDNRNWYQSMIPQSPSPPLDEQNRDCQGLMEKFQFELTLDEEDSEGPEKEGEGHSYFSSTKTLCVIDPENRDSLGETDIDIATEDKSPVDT

PDE4B-subtype selectivity	IC50 [nM]	SMILES
highly selective for PDE4B		CCc1c(C)nc(-c2ccc(Cl)s2)nc1Nc1ccc(CC(=O)O)cc1 [Compound 2, reference compound]
	770	O=C(O)Cc1ccc(Nc2nc(-c3ccc(Cl)cc3)nc(C3CC3)n2)cc1 [Compound 9]
does not show PDE4B-subtype selectivity		CCOc1nc(Nc2ccc(OC)cc2)nc(OCC)n1 [Compound 1]

Source: paper PMC4142572 (Bioorganic & medicinal chemistry letters, 2014)
